Data from PubChem BioAssay AID256 (DTP/NCI, 2004).
Inconclusive results and toxic doses are left out.

Test system: CD2F1 mice, L1210 leukemia ip, survival T/C
Assay: NCI In Vivo Anticancer Drug Screen. Data for tumor model L1210 Leukemia (intraperitoneal) in CD2F1 (CDF1) mice
Conditions: higher = longer survival
Outline: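 Read-out first: treated-group measurement over vehicle-control measurement, expressed as a ratio. Animals bore a transplanted tumor line and were dosed with compound or vehicle.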

[1] = endpoint: mean survival time, dose: 100.0 mg/kg/injection, schedule: Q04DX002 (ip), vehicle: saline with Tween-80
[2] = endpoint: mean survival time, dose: 200.0 mg/kg/injection, schedule: Q04DX002 (ip), vehicle: saline with Tween-80
[3] = endpoint: mean survival time, dose: 400.0 mg/kg/injection, schedule: Q04DX002 (ip), vehicle: saline with Tween-80
[4] = endpoint: mean survival time, dose: 25.0 mg/kg/injection, schedule: Q01DX009 (ip), vehicle: saline with Tween-80
[5] = endpoint: mean survival time, dose: 50.0 mg/kg/injection, schedule: Q01DX009 (ip), vehicle: saline with Tween-80
[6] = endpoint: mean survival time, dose: 100.0 mg/kg/injection, schedule: Q01DX009 (ip), vehicle: saline with Tween-80
[7] = endpoint: mean survival time, dose: 100.0 mg/kg/injection, schedule: Q01DX001 (ip), vehicle: saline with Tween-80
[8] = endpoint: mean survival time, dose: 200.0 mg/kg/injection, schedule: Q01DX001 (ip), vehicle: saline with Tween-80
[9] = endpoint: mean survival time, dose: 400.0 mg/kg/injection, schedule: Q01DX001 (ip), vehicle: saline with Tween-80

CNNCc1ccc(C(=O)NC(N)=O)cc1
T/C (endpoint: mean survival time, dose: 8.0 mg/kg/injection, schedule: Q03HX024 (ip), vehicle: saline): 124 % of control | T/C (endpoint: mean survival time, dose: 16.0 mg/kg/injection, schedule: Q01DX005 (iv), vehicle: saline): 123 % of control | T/C (endpoint: mean survival time, dose: 16.0 mg/kg/injection, schedule: Q03HX008 (ip), vehicle: saline): 112 % of control | T/C (endpoint: mean survival time, dose: 16.0 mg/kg/injection, schedule: Q03HX016 (ip), vehicle: saline): 110 % of control | T/C (endpoint: mean survival time, dose: 16.0 mg/kg/injection, schedule: Q03HX024 (ip), vehicle: saline): 124 % of control | T/C (endpoint: mean survival time, dose: 32.0 mg/kg/injection, schedule: Q01DX005 (iv), vehicle: saline): 119 % of control | T/C (endpoint: mean survival time, dose: 32.0 mg/kg/injection, schedule: Q01DX008 (ip), vehicle: saline): 119 % of control | T/C (endpoint: mean survival time, dose: 32.0 mg/kg/injection, schedule: Q03HX008 (ip), vehicle: saline): 115 % of control | T/C (endpoint: mean survival time, dose: 32.0 mg/kg/injection, schedule: Q03HX016 (ip), vehicle: saline): 120 % of control | T/C (endpoint: mean survival time, dose: 64.0 mg/kg/injection, schedule: Q01DX005 (iv), vehicle: saline): 112 % of control | T/C (endpoint: mean survival time, dose: 64.0 mg/kg/injection, schedule: Q03HX008 (ip), vehicle: saline): 117 % of control | T/C (endpoint: mean survival time, dose: 64.0 mg/kg/injection, schedule: Q04DX003 (ip), vehicle: saline): 121 % of control | T/C (endpoint: mean survival time, dose: 128.0 mg/kg/injection, schedule: Q01DX001 (ip), vehicle: saline): 107 % of control | T/C (endpoint: mean survival time, dose: 128.0 mg/kg/injection, schedule: Q01DX001 (iv), vehicle: saline): 103 % of control | T/C (endpoint: mean survival time, dose: 128.0 mg/kg/injection, schedule: Q01DX001 (oral), vehicle: saline): 114 % of control | T/C (endpoint: mean survival time, dose: 128.0 mg/kg/injection, schedule: Q01DX005 (iv), vehicle: saline): 122 % of control | T/C (endpoint: mean survival time, dose: 128.0 mg/kg/injection, schedule: Q01DX009 (oral), vehicle: saline): 164 % of control | T/C (endpoint: mean survival time, dose: 128.0 mg/kg/injection, schedule: Q04DX003 (ip), vehicle: saline): 118 % of control | T/C (endpoint: mean survival time, dose: 128.0 mg/kg/injection, schedule: Q08DX002 (ip), vehicle: saline): 116 % of control | T/C (endpoint: mean survival time, dose: 222.0 mg/kg/injection, schedule: Q01DX Z (ip), vehicle: saline): 162 % of control | T/C (endpoint: mean survival time, dose: 256.0 mg/kg/injection, schedule: Q01DX001 (ip), vehicle: saline): 120 % of control | T/C (endpoint: mean survival time, dose: 256.0 mg/kg/injection, schedule: Q01DX001 (iv), vehicle: saline): 106 % of control | T/C (endpoint: mean survival time, dose: 256.0 mg/kg/injection, schedule: Q01DX001 (oral), vehicle: saline): 117 % of control | T/C (endpoint: mean survival time, dose: 256.0 mg/kg/injection, schedule: Q01DX009 (oral), vehicle: saline): 169 % of control | T/C (endpoint: mean survival time, dose: 256.0 mg/kg/injection, schedule: Q04DX003 (ip), vehicle: saline): 121 % of control | T/C (endpoint: mean survival time, dose: 256.0 mg/kg/injection, schedule: Q08DX002 (ip), vehicle: saline): 123 % of control | T/C (endpoint: mean survival time, dose: 333.0 mg/kg/injection, schedule: Q01DX Z (ip), vehicle: saline): 120 % of control | T/C (endpoint: mean survival time, dose: 512.0 mg/kg/injection, schedule: Q01DX001 (ip), vehicle: saline): 124 % of control | T/C (endpoint: mean survival time, dose: 512.0 mg/kg/injection, schedule: Q01DX001 (iv), vehicle: saline): 114 % of control | T/C (endpoint: mean survival time, dose: 512.0 mg/kg/injection, schedule: Q08DX002 (ip), vehicle: saline): 118 % of control

CCOc1ccccc1OC(=O)Nc1ccccc1OC
T/C [1]: 106 % of control | T/C [2]: 88 % of control | T/C [3]: 100 % of control

O=C(O/N=C(\CN1CCCC1)c1ccc(Cl)cc1)c1ccccc1
T/C (endpoint: mean survival time, dose: 100.0 mg/kg/injection, schedule: Q01DX001 (ip), vehicle: Klucel (hydroxypropylcellulose) (HPC)): 95 % of control | T/C (endpoint: mean survival time, dose: 200.0 mg/kg/injection, schedule: Q01DX001 (ip), vehicle: Klucel (hydroxypropylcellulose) (HPC)): 95 % of control | T/C (endpoint: mean survival time, dose: 400.0 mg/kg/injection, schedule: Q01DX001 (ip), vehicle: Klucel (hydroxypropylcellulose) (HPC)): 93 % of control

CC(CN1CCCCC1)C(=O)c1ccc(-c2ccccc2)cc1 (configuration not stated)
T/C [4]: 97 % of control | T/C [5]: 100 % of control | T/C [6]: 97 % of control

CCN(CC)Cc1cc(Nc2c3ccc(Cl)cc3nc3ccc(OC)nc23)ccc1O
T/C (endpoint: mean survival time, dose: 25.0 mg/kg/injection, schedule: Q01DX001 (ip), vehicle: saline with Tween-80): 94 % of control | T/C (endpoint: mean survival time, dose: 50.0 mg/kg/injection, schedule: Q01DX001 (ip), vehicle: saline with Tween-80): 94 % of control | T/C [7]: 90 % of control | T/C [8]: 95 % of control | T/C [9]: 91 % of control

N#CC(C#N)=Cc1ccc2c(c1)CCC2
T/C [4]: 93 % of control | T/C (endpoint: mean survival time, dose: 25.0 mg/kg/injection, schedule: Q04DX003 (ip), vehicle: saline with Tween-80): 100 % of control | T/C [5]: 96 % of control | T/C (endpoint: mean survival time, dose: 50.0 mg/kg/injection, schedule: Q04DX003 (ip), vehicle: saline with Tween-80): 90 % of control | T/C [6]: 94 % of control | T/C (endpoint: mean survival time, dose: 100.0 mg/kg/injection, schedule: Q04DX003 (ip), vehicle: saline with Tween-80): 95 % of control

[N-]=[N+]=NC1CC(n2ccc(N)nc2=O)OC1CO (configuration not stated)
T/C (endpoint: median survival time, dose: 12.5 mg/kg/injection, schedule: Q01DX005 (ip), vehicle: saline): 113 % of control | T/C (endpoint: median survival time, dose: 25.0 mg/kg/injection, schedule: Q01DX005 (ip), vehicle: saline): 109 % of control | T/C (endpoint: median survival time, dose: 50.0 mg/kg/injection, schedule: Q01DX005 (ip), vehicle: saline): 98 % of control | T/C (endpoint: median survival time, dose: 100.0 mg/kg/injection, schedule: Q01DX005 (ip), vehicle: saline): 107 % of control | T/C (endpoint: median survival time, dose: 200.0 mg/kg/injection, schedule: Q01DX005 (ip), vehicle: saline): 103 % of control

O=S1(=O)N=C2C3CCN(CC3)C2C(c2ccccc2)N1 (configuration not stated)
T/C (endpoint: mean survival time, dose: 50.0 mg/kg/injection, schedule: Q01DX001 (ip), vehicle: saline): 94 % of control | T/C (endpoint: mean survival time, dose: 100.0 mg/kg/injection, schedule: Q01DX001 (ip), vehicle: saline): 101 % of control | T/C (endpoint: mean survival time, dose: 200.0 mg/kg/injection, schedule: Q01DX001 (ip), vehicle: saline): 101 % of control

Cc1ccccc1C1CCC(=O)OC1=O (configuration not stated)
T/C [7]: 97 % of control | T/C [1]: 100 % of control | T/C [8]: 95 % of control | T/C [2]: 103 % of control | T/C [9]: 94 % of control | T/C [3]: 100 % of control

COc1ccc(-c2ncn(-c3ccc(S(=O)(=O)O)cc3)c2-c2ccc(OC)cc2)cc1
T/C (endpoint: mean survival time, dose: 100.0 mg/kg/injection, schedule: Q04DX003 (ip), vehicle: Klucel (hydroxypropylcellulose) (HPC)): 95 % of control | T/C (endpoint: mean survival time, dose: 200.0 mg/kg/injection, schedule: Q04DX003 (ip), vehicle: Klucel (hydroxypropylcellulose) (HPC)): 95 % of control | T/C (endpoint: mean survival time, dose: 400.0 mg/kg/injection, schedule: Q04DX003 (ip), vehicle: Klucel (hydroxypropylcellulose) (HPC)): 102 % of control

CN(C)CCSCC(=O)N1c2ccccc2Sc2ccccc21
T/C (endpoint: mean survival time, dose: 100.0 mg/kg/injection, schedule: Q04DX003 (ip), vehicle: saline): 96 % of control

NC(N)=NNc1ccccc1
T/C (endpoint: mean survival time, dose: 6.25 mg/kg/injection, schedule: Q01DX009 (ip), vehicle: saline): 100 % of control | T/C (endpoint: mean survival time, dose: 12.5 mg/kg/injection, schedule: Q01DX009 (ip), vehicle: saline): 100 % of control | T/C (endpoint: mean survival time, dose: 25.0 mg/kg/injection, schedule: Q01DX009 (ip), vehicle: saline): 96 % of control

Cc1ccccc1-[n+]1nc(-c2ccccc2)nn1-c1ccccc1
T/C (endpoint: mean survival time, dose: 1.25 mg/kg/injection, schedule: Q01DX009 (ip), vehicle: saline sonified): 104 % of control | T/C (endpoint: mean survival time, dose: 5.0 mg/kg/injection, schedule: Q04DX003 (ip), vehicle: saline with Tween-80): 98 % of control

Nc1nc2c(ncn2C2OC(COC(=O)Oc3ccccc3)C(O)C2O)c(=O)[nH]1 (configuration not stated)
T/C (endpoint: mean survival time, dose: 50.0 mg/kg/injection, schedule: Q01DX009 (ip), vehicle: Klucel (hydroxypropylcellulose) (HPC)): 107 % of control | T/C (endpoint: mean survival time, dose: 100.0 mg/kg/injection, schedule: Q01DX009 (ip), vehicle: Klucel (hydroxypropylcellulose) (HPC)): 96 % of control | T/C (endpoint: mean survival time, dose: 200.0 mg/kg/injection, schedule: Q01DX009 (ip), vehicle: Klucel (hydroxypropylcellulose) (HPC)): 92 % of control

O=C(O)c1ccc([N+](=O)[O-])cc1
T/C (endpoint: mean survival time, dose: 100.0 mg/kg/injection, schedule: Q04DX002 (ip), vehicle: Klucel (hydroxypropylcellulose) (HPC)): 93 % of control | T/C (endpoint: mean survival time, dose: 200.0 mg/kg/injection, schedule: Q04DX002 (ip), vehicle: Klucel (hydroxypropylcellulose) (HPC)): 101 % of control | T/C (endpoint: mean survival time, dose: 400.0 mg/kg/injection, schedule: Q04DX002 (ip), vehicle: Klucel (hydroxypropylcellulose) (HPC)): 86 % of control

C[Si](C)(C)C1([Si](C)(C)C)SCCCS1
T/C (endpoint: mean survival time, dose: 50.0 mg/kg/injection, schedule: Q01DX009 (ip), vehicle: other): 105 % of control | T/C (endpoint: mean survival time, dose: 100.0 mg/kg/injection, schedule: Q01DX009 (ip), vehicle: other): 105 % of control | T/C (endpoint: mean survival time, dose: 200.0 mg/kg/injection, schedule: Q01DX009 (ip), vehicle: other): 102 % of control
